Results: ChEMBL document CHEMBL5696442, “Discovery of type II inhibitors of TGFβ-activated kinase 1 (TAK1) and mitogen-activated protein kinase kinase kinase kinase 2 (MAP4K2)” (J Med Chem, 2015)
Calls of active or inactive are those of the source. The calls are words filed in the database; no cut-off is given here.

What was measured:
[1] = biological target: Serine/threonine-protein kinase 32C (Homo sapiens) (UniProt Q86UX6); assay: Inhibition of YANK3 Lys2 labeling site in human Huh-7 cell lysate at 1 uM by KiNativ Profiling analysis relative to control; type: subcellular
[2] = biological target: Calcium/calmodulin-dependent protein kinase type II subunit alpha (Homo sapiens) (UniProt Q9UQM7); assay: Inhibition of CaMK2a Lys2 labeling site in human Huh-7 cells at 1 uM by KiNativ Profiling analysis relative to control; type: cell-based
Chain of Calcium/calmodulin-dependent protein kinase type II subunit alpha (Homo sapiens) (Q9UQM7 whole entry): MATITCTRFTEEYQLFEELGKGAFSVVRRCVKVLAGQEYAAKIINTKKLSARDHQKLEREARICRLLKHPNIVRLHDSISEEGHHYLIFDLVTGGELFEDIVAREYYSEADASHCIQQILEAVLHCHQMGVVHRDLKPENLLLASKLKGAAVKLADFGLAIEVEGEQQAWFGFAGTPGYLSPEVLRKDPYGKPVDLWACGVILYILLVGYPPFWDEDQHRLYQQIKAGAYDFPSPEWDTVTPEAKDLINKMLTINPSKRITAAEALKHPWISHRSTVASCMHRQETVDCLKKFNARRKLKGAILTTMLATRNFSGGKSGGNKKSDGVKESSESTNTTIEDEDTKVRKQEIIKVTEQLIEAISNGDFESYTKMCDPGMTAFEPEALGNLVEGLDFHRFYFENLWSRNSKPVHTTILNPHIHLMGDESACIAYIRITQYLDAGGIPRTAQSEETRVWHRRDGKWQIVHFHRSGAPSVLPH

[3] = test system: Epidermal growth factor receptor (Homo sapiens), P00533 [UNDEFINED MUTATION]; details: dose 1.0 µM
Chain of Epidermal growth factor receptor (Homo sapiens), P00533 [UNDEFINED MUTATION] (P00533 whole entry, looked up, change not shown): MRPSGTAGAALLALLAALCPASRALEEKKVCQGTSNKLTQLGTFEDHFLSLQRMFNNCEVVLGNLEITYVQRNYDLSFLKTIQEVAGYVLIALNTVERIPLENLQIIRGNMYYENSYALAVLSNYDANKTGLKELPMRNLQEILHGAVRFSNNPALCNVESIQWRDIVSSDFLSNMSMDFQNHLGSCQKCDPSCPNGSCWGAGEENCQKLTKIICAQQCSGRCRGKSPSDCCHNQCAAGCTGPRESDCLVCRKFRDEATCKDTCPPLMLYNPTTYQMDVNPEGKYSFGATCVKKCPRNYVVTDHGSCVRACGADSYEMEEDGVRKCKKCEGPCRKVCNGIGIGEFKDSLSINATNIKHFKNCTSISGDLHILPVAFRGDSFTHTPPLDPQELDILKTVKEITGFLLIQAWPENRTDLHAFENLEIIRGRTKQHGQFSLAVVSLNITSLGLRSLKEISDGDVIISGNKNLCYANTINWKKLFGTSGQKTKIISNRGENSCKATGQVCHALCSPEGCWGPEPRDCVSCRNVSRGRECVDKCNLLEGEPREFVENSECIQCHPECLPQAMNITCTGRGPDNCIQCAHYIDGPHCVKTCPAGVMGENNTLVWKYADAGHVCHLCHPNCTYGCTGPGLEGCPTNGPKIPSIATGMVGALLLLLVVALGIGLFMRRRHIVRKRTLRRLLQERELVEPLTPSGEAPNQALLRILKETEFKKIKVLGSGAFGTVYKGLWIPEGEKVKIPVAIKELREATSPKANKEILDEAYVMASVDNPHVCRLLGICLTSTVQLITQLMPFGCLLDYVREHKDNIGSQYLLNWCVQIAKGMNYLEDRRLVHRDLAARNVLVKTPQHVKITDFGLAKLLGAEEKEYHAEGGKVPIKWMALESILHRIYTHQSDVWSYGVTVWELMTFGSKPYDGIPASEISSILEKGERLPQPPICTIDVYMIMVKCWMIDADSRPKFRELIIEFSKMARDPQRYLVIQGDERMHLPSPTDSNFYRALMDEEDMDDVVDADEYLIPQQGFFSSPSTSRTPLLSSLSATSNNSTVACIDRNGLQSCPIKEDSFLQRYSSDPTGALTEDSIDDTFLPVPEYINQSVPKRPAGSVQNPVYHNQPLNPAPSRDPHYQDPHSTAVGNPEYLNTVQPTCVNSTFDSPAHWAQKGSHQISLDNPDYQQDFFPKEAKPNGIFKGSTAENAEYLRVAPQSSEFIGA

[4] = biological target: T1, Serine/threonine-protein kinase TAO1 (Homo sapiens) (UniProt Q7L7X3); assay: Inhibition of TAOK1 (unknown origin) at 1 uM by Ambit Kinomescan binding assay relative to control
T1 sequence (whole entry): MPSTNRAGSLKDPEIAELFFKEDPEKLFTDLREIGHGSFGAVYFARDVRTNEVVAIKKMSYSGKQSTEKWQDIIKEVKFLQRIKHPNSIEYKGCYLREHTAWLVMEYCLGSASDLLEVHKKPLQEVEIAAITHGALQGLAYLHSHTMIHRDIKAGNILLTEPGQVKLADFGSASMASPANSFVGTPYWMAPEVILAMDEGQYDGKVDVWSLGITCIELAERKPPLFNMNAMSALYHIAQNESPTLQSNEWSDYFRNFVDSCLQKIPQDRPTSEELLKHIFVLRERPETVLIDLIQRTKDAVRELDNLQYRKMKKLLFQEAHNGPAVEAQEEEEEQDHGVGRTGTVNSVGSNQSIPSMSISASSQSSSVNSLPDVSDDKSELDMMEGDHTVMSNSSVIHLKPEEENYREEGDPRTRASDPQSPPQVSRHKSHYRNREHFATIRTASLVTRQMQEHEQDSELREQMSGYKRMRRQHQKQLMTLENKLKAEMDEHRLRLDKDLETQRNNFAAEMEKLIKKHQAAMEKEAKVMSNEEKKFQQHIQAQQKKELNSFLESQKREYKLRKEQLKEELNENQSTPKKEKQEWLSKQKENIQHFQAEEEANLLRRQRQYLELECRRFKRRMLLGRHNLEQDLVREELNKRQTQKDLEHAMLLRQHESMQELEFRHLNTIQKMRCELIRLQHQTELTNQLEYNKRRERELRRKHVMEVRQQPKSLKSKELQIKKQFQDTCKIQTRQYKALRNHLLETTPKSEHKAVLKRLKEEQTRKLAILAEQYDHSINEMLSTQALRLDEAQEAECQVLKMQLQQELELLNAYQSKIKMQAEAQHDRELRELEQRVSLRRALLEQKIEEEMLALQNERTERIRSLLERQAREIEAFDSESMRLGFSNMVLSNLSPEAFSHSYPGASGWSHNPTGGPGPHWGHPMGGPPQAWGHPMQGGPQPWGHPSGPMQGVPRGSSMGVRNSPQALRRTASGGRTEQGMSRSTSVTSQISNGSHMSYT

[5] = biological target: Activated CDC42 kinase 1 (Homo sapiens) (UniProt Q07912); assay: Inhibition of ACK Lys1 labeling site in human A-375 cells at 0.5 uM by KiNativ Profiling analysis relative to control; type: cell-based
Chain of Activated CDC42 kinase 1 (Homo sapiens) (Q07912 whole entry, looked up): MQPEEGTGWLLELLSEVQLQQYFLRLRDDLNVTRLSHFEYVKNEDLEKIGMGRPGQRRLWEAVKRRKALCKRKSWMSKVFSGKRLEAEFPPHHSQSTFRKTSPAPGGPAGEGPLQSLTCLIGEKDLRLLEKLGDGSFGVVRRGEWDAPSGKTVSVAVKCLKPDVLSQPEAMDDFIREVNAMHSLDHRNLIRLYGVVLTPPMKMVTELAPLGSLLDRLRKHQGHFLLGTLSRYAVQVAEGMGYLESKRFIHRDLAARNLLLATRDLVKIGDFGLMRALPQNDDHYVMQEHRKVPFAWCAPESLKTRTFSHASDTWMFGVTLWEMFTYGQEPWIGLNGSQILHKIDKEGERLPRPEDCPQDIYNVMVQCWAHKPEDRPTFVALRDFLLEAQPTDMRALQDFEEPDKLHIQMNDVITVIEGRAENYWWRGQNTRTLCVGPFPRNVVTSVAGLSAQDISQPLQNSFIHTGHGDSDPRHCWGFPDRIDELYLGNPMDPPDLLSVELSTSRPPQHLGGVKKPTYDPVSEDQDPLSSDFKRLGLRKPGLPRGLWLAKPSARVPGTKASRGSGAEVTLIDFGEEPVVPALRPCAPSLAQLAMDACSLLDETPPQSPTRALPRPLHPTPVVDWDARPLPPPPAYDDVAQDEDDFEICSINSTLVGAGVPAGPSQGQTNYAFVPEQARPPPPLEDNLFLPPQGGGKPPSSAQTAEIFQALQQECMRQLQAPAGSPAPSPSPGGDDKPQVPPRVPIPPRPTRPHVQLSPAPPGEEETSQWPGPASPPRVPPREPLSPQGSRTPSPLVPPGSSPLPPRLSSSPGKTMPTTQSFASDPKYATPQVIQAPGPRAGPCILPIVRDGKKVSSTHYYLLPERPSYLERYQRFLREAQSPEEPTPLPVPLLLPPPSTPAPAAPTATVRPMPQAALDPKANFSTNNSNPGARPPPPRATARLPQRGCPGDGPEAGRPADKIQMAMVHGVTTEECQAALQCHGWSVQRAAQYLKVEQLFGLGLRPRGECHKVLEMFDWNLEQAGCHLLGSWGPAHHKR

[6] = biological target: T2, Serine/threonine-protein kinase STK11 (Homo sapiens) (UniProt Q15831); assay: Inhibition of LKB1 (unknown origin) at 1 uM by Ambit Kinomescan binding assay relative to control; values are per cent of control
T2 sequence (whole entry): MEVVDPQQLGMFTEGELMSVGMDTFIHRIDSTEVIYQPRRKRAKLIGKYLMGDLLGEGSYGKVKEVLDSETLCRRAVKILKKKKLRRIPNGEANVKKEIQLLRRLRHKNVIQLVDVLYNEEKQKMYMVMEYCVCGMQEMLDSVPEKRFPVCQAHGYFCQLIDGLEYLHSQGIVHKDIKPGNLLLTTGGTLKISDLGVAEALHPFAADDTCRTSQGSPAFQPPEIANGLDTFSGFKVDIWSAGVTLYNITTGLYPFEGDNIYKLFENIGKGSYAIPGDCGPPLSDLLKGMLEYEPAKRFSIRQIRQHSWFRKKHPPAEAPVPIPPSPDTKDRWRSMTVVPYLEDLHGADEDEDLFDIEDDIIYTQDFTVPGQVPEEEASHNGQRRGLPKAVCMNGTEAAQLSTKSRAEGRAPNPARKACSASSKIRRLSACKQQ

[7] = biological target: Cyclin-dependent kinase-like 3 (Homo sapiens) (UniProt Q8IVW4); assay: Inhibition of CDKL3 (unknown origin) at 1 uM by Ambit Kinomescan binding assay relative to control; values are per cent of control
Chain of Cyclin-dependent kinase-like 3 (Homo sapiens) (Q8IVW4 whole entry, looked up): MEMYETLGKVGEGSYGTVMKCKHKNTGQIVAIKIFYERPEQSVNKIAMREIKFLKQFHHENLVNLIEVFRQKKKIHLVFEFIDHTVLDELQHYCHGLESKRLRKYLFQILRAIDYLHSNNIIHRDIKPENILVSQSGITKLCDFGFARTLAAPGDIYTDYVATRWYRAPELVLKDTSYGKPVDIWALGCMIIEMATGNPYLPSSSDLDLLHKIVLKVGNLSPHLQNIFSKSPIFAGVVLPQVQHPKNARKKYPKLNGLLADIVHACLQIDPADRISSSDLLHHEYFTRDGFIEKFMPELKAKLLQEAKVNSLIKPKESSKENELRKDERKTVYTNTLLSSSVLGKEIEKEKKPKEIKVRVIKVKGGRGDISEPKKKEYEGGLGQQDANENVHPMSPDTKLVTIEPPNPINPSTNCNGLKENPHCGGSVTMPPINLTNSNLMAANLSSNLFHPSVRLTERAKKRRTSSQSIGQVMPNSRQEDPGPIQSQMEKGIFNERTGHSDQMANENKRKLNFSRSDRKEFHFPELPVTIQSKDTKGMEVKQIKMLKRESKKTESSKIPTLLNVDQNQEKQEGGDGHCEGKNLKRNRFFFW

[8] = test system: Epidermal growth factor receptor (Homo sapiens), P00533 [G719C]; assay: Inhibition of EGFR G719C mutant (unknown origin) at 10 uM by Ambit Kinomescan binding assay relative to control
Chain of Epidermal growth factor receptor (Homo sapiens), P00533 [G719C] (P00533 whole entry G719C): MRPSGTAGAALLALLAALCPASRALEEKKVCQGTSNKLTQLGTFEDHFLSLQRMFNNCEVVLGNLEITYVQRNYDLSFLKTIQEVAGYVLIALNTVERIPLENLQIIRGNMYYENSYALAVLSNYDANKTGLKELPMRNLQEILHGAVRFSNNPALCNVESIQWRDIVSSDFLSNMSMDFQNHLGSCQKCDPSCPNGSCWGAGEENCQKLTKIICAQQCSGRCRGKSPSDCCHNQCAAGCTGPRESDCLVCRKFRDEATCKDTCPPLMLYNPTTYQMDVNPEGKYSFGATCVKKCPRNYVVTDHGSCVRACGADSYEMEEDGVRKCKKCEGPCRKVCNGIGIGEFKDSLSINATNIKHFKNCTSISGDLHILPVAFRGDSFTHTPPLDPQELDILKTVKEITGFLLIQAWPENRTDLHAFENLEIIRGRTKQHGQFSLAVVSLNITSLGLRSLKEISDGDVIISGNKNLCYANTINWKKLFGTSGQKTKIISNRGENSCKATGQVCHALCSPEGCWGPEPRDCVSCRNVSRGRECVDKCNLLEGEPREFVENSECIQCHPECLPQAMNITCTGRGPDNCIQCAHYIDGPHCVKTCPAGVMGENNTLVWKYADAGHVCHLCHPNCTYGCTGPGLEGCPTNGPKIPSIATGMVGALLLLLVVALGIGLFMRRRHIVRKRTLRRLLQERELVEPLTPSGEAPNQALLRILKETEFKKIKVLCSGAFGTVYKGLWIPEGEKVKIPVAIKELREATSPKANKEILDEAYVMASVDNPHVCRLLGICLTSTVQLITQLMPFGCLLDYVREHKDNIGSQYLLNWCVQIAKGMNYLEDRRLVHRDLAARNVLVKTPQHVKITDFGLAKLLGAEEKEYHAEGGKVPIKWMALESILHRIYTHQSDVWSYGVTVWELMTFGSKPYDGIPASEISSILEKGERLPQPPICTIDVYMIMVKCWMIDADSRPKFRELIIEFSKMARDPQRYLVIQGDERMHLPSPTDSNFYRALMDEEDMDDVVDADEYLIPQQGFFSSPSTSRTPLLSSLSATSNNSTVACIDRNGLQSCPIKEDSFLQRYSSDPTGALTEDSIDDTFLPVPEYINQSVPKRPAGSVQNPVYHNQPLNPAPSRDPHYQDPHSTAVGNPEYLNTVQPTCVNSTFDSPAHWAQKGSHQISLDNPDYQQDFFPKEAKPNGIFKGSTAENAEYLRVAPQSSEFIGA

[9] = biological target: Ephrin type-A receptor 4 (Homo sapiens) (UniProt P54764); assay: Inhibition of EPHA4 (unknown origin) at 10 uM by Ambit Kinomescan binding assay relative to control
[10] = biological target: Mitogen-activated protein kinase 15 (Homo sapiens) (UniProt Q8TD08); assay: Inhibition of ERK8 (unknown origin) at 10 uM by Ambit Kinomescan binding assay
[11] = biological target: Tyrosine-protein kinase Lyn (Homo sapiens, UniProt P07948); assay: Inhibition of LYN Lys1 labeling site in human A-375 cells at 0.05 uM by KiNativ Profiling analysis relative to control; type: cell-based
Chain of Tyrosine-protein kinase Lyn (P07948 2-512 limits assumed): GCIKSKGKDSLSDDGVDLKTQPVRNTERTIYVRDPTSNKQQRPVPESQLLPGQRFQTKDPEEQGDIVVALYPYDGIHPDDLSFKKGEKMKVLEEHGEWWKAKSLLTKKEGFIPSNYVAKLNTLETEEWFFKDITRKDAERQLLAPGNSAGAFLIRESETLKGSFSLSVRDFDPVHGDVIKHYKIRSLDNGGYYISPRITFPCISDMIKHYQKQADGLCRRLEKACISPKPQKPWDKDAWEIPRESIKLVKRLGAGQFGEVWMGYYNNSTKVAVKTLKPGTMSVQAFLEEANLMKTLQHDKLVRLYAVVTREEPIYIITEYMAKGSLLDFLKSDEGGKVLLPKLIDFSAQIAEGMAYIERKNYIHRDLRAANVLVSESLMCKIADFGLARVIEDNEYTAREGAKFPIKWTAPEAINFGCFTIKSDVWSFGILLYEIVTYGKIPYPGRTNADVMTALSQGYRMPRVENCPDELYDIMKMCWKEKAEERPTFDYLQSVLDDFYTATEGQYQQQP

[12] = biological target: Ribosomal protein S6 kinase alpha-1 (Homo sapiens) (UniProt Q15418); assay: Inhibition of RSK1 Domain 2 K2 labeling site in human Huh-7 cells at 10 uM by KiNativ Profiling analysis relative to control; type: cell-based
[13] = biological target: T3, Phosphatidylinositol 5-phosphate 4-kinase type-2 alpha (Homo sapiens) (UniProt P48426); assay: Inhibition of PIP5K2A LIP labeling site in human Huh-7 cells at 1 uM by KiNativ Profiling analysis relative to control; type: cell-based
T3 sequence (whole entry): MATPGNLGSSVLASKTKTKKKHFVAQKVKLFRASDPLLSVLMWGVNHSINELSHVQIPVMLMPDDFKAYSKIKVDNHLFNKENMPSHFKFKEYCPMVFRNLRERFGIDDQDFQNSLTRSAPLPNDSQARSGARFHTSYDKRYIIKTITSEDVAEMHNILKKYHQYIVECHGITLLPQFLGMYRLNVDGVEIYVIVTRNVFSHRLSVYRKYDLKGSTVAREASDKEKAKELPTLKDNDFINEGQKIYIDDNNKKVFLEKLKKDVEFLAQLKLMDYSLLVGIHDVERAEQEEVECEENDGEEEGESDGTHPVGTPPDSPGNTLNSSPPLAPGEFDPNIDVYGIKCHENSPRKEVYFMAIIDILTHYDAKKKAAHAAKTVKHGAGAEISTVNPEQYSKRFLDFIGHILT

CNc1cc(Oc2cc(C(=O)Nc3cc(N4CCN(C)CC4)cc(C(F)(F)F)c3)ccc2C)ncn1
inhibition [1]: -3.3%
inhibition [2]: 20.3%

CCN1CCN(Cc2ccc(NC(=O)c3ccc(C)c(/C=C/c4cnc5[nH]ccc5c4OC)c3)cc2C(F)(F)F)CC1
inhibition [3]: 0.5%
inhibition [4]: 22%
inhibition [5]: 35.2%
residual activity [6]: 58%
residual activity [7]: 50%

CCN1CCN(Cc2ccc(NC(=O)c3ccc(C)c(Oc4ccnc5[nH]ccc45)c3)cc2C(F)(F)F)CC1
inhibition [8]: 12%
inhibition [9]: 5.8%
inhibition [10]: inactive
inhibition [11]: 71.9%
inhibition [12]: 8%
inhibition [13]: -0.3%
